Consider 1 molecule from BindingDB's records for patent US12344597 (Idorsia Pharmaceuticals, 2025).

As a reminder, the IC50 is the concentration that gives 50% inhibition. High values mean a need for much substance, low ones inhibition by little substance.

For this assay, the target named is Lysophosphatidic acid receptor 1 (Homo sapiens, UniProt Q92633). In words: Beta-Arrestin Recruitment Assay. The source says:
The Tango™ EDG2-bla U2OS cells are obtained from Invitrogen. These cells contain the human LPA1 receptor cDNA linked to a TEV protease site and a Gal4-VP16 transcription factor integrated into the Tango™ GPCR-bla U2OS parental cell line. This parental cell line stably expresses a beta-arrestin/TEV protease fusion protein and the beta-lactamase (bla) reporter gene under the control of a UAS response element. Upon LPA (agonist) binding, LPA1 receptor gets activated, leading to arrestin-protease recruitment and proteolytic release of the transcription factor: The transcription factor then regulates transcription of a beta-lactamase reporter construct, which is measured upon addition of the live-cell substrate.10′000 Tango™ EDG2-bla U2OS cells are seeded in a 384-well black with clear bottom plate in 30 μl Freestyle 293 Expression Medium (Invitrogen) and incubated for 20 h at 37° C., 5% CO2. […] IC50 is the concentration of antagonist inhibiting 50% of the maximal response.
In general terms: Arrestin recruitment assays detect the binding of arrestin to an activated receptor.

Lysophosphatidic acid receptor 1, sequence (Q92633 whole entry, the tested form may be a part): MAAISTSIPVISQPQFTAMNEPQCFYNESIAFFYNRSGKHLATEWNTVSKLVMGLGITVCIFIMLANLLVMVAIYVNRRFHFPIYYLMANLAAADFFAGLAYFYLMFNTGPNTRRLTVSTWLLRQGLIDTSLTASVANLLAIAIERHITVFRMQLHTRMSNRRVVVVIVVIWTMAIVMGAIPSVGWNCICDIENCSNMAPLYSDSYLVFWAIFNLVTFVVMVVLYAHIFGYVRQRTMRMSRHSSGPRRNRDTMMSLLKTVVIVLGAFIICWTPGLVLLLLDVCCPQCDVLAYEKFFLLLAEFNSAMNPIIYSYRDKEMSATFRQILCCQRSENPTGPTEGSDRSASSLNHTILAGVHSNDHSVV

In turn, `Cc1ccc(NC(=O)C2(c3ccccc3C(C)C)CN(CCC#N)C2)c(OC(F)F)n1` [US12344597, Example 11-16] had an IC50 of 4 nM.
